Laboratory results published in ChEMBL document CHEMBL1133987, “Broad spectrum antiprotozoal agents that inhibit histone deacetylase: structure-activity relationships of apicidin. Part 1” (Bioorg Med Chem Lett, 2001).
Values after ≈ are worked out from the molar mass of the structure shown.

Assays:
Plasmodium falciparum = test: In vitro antiprotozoal activity against Plasmodium falciparum 3D7 infected erythrocytes […]; type: functional, organism-based
Histone deacetylase = test: Inhibitory activity against histone deacetylase (HDAC) derived from partially purified extracts of human HeLa cells
Eimeria tenella = test: Antiprotozoal activity (functional assay) using […] bovine kidney (MDBK) host cells infected with Eimeria tenella
HeLa = test: Concentration for 50% inhibition of cell growth of human HeLa cells or foreskin fibroblasts in In vitro anti-proliferative functional assay

Row | Compound | IC50 (Plasmodium falciparum) | IC50 (Histone deacetylase) | MIC (Eimeria tenella) | AP50 (HeLa)
1 | CCCCCCCC[C@@H]1NC(=O)[C@H]2CCCCN2CC(=O)[C@H]([C@@H](C)CC)NC(=O)[C@H](Cc2cn(OC)c3ccccc23)NC1=O | 0.61 µg/mL (≈ 0.978 µM) | 0.061 µM | 1 µg/mL (≈ 1.6 µM) | 
2 | CCC(=O)C(=O)CCCC[C@@H]1NC(=O)[C@H]2CCCCN2CC(=O)[C@H]([C@@H](C)CC)NC(=O)[C@H](Cc2cn(OC)c3ccccc23)NC1=O | 0.7 µg/mL (≈ 1.07 µM) | 0.018 µM | 0.313 µg/mL (≈ 0.48 µM) | 
3 | CCC(=O)C1OC1CCC[C@@H]1NC(=O)[C@H]2CCCCN2CC(=O)[C@H]([C@@H](C)CC)NC(=O)[C@H](Cc2cn(OC)c3ccccc23)NC1=O (stereo partly drawn) | 0.35 µg/mL (≈ 0.537 µM) | 0.005 µM | 0.15 µg/mL (≈ 0.23 µM) | 
4 | CCC(=O)CCCCC[C@@H]1NC(=O)[C@H]2CCCCN2CC(=O)[C@H]([C@@H](C)CC)/N=C(\S)[C@H](Cc2cn(OC)c3ccccc23)N=C1S | 0.1 µg/mL (≈ 0.149 µM) |  | 0.125 µg/mL (≈ 0.187 µM) | 1000 ng/mL
5 | CC[C@H](C)[C@@H]1NC(=O)[C@H](Cc2cn(OC)c3ccccc23)NC(=O)[C@H](CCCCCC(=O)C(C)=O)NC(=O)[C@H]2CCCCN2CC1=O | 0.9 µg/mL (≈ 1.38 µM) | 0.03 µM | 0.25 µg/mL (≈ 0.384 µM) | 
6 | CC[C@H](C)[C@@H]1NC(=O)[C@H](Cc2cn(OC)c3ccccc23)NC(=O)[C@H](CCCCCC(=O)OC)NC(=O)[C@H]2CCCCN2CC1=O | 0.21 µg/mL (≈ 0.328 µM) | 0.0004 µM | > 1 µg/mL | 
7 | CCC(=O)CCCCC[C@@H]1NC(=O)[C@H]2CCCCN2CC(=O)[C@H]([C@@H](C)CC)NC(=O)[C@H](Cc2cn(OC)c3ccccc23)NC1=O | 0.058 µg/mL (≈ 0.0909 µM) | 0.001 µM | 0.094 µg/mL (≈ 0.147 µM) | 
8 | CC[C@H](C)[C@@H]1NC(=O)[C@H](Cc2cn(OC)c3ccccc23)NC(=O)[C@H](CCCCC(=O)O)NC(=O)[C@H]2CCCCN2CC1=O |  | 0.282 µM | > 1 µg/mL | 
9 | CC[C@H](C)[C@@H]1NC(=O)[C@H](Cc2cn(OC)c3ccccc23)NC(=O)[C@H](CCCCCC(=O)C(C)F)NC(=O)[C@H]2CCCCN2CC1=O (stereo partly drawn) | 0.028 µg/mL (≈ 0.0427 µM) | 0.001 µM | 0.062 µg/mL (≈ 0.0945 µM) | 
10 | CCC(=O)CCCCC[C@@H]1/N=C(\S)[C@H]2CCCCN2CC(=O)[C@H]([C@@H](C)CC)/N=C(\S)[C@H](Cc2cn(OC)c3ccccc23)NC1=O | 0.1 µg/mL (≈ 0.149 µM) |  | 0.125 µg/mL (≈ 0.187 µM) | 1000 ng/mL
11 | CC[C@H](C)[C@@H]1NC(=O)[C@H](Cc2cn(OC)c3ccccc23)NC(=O)[C@H](CCCCCP(=O)([O-])O)NC(=O)[C@H]2CCCCN2CC1=O.[K+] | > 1 µg/mL | 0.18 µM | > 1 µg/mL | 
12 | CCCC(=O)CCCCC[C@@H]1NC(=O)[C@H]2CCCCN2CC(=O)[C@H]([C@@H](C)CC)NC(=O)[C@H](Cc2cn(OC)c3ccccc23)NC1=O | 0.15 µg/mL (≈ 0.23 µM) | 0.001 µM | 0.125 µg/mL (≈ 0.192 µM) | 
13 | CC[C@H](C)[C@@H]1NC(=O)[C@H](Cc2cn(OC)c3ccccc23)NC(=O)[C@H](CCCCCC(=O)C(C)C)NC(=O)[C@H]2CCCCN2CC1=O | 0.5 µg/mL (≈ 0.767 µM) | 0.235 µM | 0.75 µg/mL (≈ 1.15 µM) | 
14 | CC[C@H](C)[C@@H]1NC(=O)[C@H](Cc2cn(OC)c3ccccc23)NC(=O)[C@H](CCCCCC=O)NC(=O)[C@H]2CCCCN2CC1=O | 0.5 µg/mL (≈ 0.82 µM) | 0.006 µM | 1 µg/mL (≈ 1.64 µM) | 
15 | CC[C@H](C)[C@@H]1NC(=O)[C@H](Cc2cn(OC)c3ccccc23)NC(=O)[C@H](CCCCCC(=O)C2CO2)NC(=O)[C@H]2CCCCN2CC1=O (stereo partly drawn) | < 0.015 µg/mL | < 0.0001 µM | 0.003 µg/mL (≈ 0.0046 µM) | 
16 | CC[C@H](C)[C@@H]1NC(=O)[C@H](Cc2cn(OC)c3ccccc23)NC(=O)[C@H](CCCCCC(=O)O)NC(=O)[C@H]2CCCCN2CC1=O | > 1 µg/mL | 0.015 µM | 1 µg/mL (≈ 1.6 µM) | 
17 | CCC(=O)C(O)CCCC[C@@H]1NC(=O)[C@H]2CCCCN2CC(=O)[C@H]([C@@H](C)CC)NC(=O)[C@H](Cc2cn(OC)c3ccccc23)NC1=O (stereo partly drawn) |  | 0.039 µM | 1 µg/mL (≈ 1.53 µM) | 

Row | Compound | IC50 (Plasmodium falciparum) | IC50 (Histone deacetylase) | MIC (Eimeria tenella) | AP50 (HeLa)
18 | CC[C@H](C)[C@@H]1NC(=O)[C@H](Cc2cn(OC)c3ccccc23)NC(=O)[C@H](CCCCCC(C)=O)NC(=O)[C@H]2CCCCN2CC1=O | 0.055 µg/mL (≈ 0.0882 µM) | 0.002 µM | 0.125 µg/mL (≈ 0.2 µM) | 
19 | CC[C@H](C)[C@@H]1NC(=O)[C@H](Cc2cn(OC)c3ccccc23)NC(=O)[C@H](CCCCCSC(C)=O)NC(=O)[C@H]2CCCCN2CC1=O | 0.9 µg/mL (≈ 1.37 µM) | 0.003 µM | 1 µg/mL (≈ 1.52 µM) | 
20 | CC[C@H](C)[C@@H]1NC(=O)[C@H](Cc2cn(OC)c3ccccc23)NC(=O)[C@H](CCCCCSC)NC(=O)[C@H]2CCCCN2CC1=O | > 1 µg/mL | 0.326 µM | > 1 µg/mL | 
21 | CC[C@H](C)[C@@H]1NC(=O)[C@H](Cc2cn(OC)c3ccccc23)NC(=O)[C@H](CCCCCCC(=O)O)NC(=O)[C@H]2CCCCN2CC1=O | > 1 µg/mL | 0.848 µM | > 1 µg/mL | 
22 | CC[C@H](C)[C@@H]1NC(=O)[C@H](Cc2cn(OC)c3ccccc23)NC(=O)[C@H](CCCCCC(=O)C(C)O)NC(=O)[C@H]2CCCCN2CC1=O (stereo partly drawn) | 0.022 µg/mL (≈ 0.0336 µM) | 0.0003 µM | 0.008 µg/mL (≈ 0.0122 µM) | 
23 | CCC(CCCCC[C@@H]1NC(=O)[C@H]2CCCCN2CC(=O)[C@H]([C@@H](C)CC)NC(=O)[C@H](Cc2cn(OC)c3ccccc23)NC1=O)SC(C)=O (stereo partly drawn) | 0.59 µg/mL (≈ 0.845 µM) |  | 0.25 µg/mL (≈ 0.358 µM) | 
24 | CC[C@H](C)[C@@H]1NC(=O)[C@H](Cc2cn(OC)c3ccccc23)NC(=O)[C@H](CCCCSC(C)=O)NC(=O)[C@H]2CCCCN2CC1=O | > 1 µg/mL | 0.11 µM | > 1 µg/mL | 
25 | C=C(CC)CCCCC[C@@H]1NC(=O)[C@H]2CCCCN2CC(=O)[C@H]([C@@H](C)CC)NC(=O)[C@H](Cc2cn(OC)c3ccccc23)NC1=O | 1 µg/mL (≈ 1.57 µM) | 1.45 µM | 1 µg/mL (≈ 1.57 µM) | 
26 | CC[C@H](C)[C@@H]1NC(=O)[C@H](Cc2cn(OC)c3ccccc23)NC(=O)[C@H](CCCCCC(=O)NO)NC(=O)[C@H]2CCCCN2CC1=O | 0.00024 µg/mL (≈ 0.000375 µM) |  | > 0.5 µg/mL | 
27 | CC[C@H](C)[C@@H]1NC(=O)[C@H](Cc2cn(OC)c3ccccc23)NC(=O)[C@H](CCCCCCC(=O)OC)NC(=O)[C@H]2CCCCN2CC1=O | 0.5 µg/mL (≈ 0.765 µM) | 0.007 µM | > 1 µg/mL | 
28 | CC[C@H](C)[C@@H]1NC(=O)[C@H](Cc2cn(OC)c3ccccc23)NC(=O)[C@H](CCCCCP(=O)(OC)OC)NC(=O)[C@H]2CCCCN2CC1=O | 0.85 µg/mL (≈ 1.23 µM) | 0.45 µM | > 1 µg/mL | 
29 | CC[C@H](C)[C@@H]1NC(=O)[C@H](Cc2cn(OC)c3ccccc23)NC(=O)[C@H](CCCCCC(=O)c2ccccc2)NC(=O)[C@H]2CCCCN2CC1=O | 0.35 µg/mL (≈ 0.51 µM) | 0.7 µM | 1 µg/mL (≈ 1.46 µM) | 
30 | CC[C@H](C)[C@@H]1NC(=O)[C@H](Cc2cn(OC)c3ccccc23)NC(=O)[C@H](CCCCCC2(CC)CO2)NC(=O)[C@H]2CCCCN2CC1=O (stereo partly drawn) | 1 µg/mL (≈ 1.53 µM) | 0.06 µM | > 1 µg/mL | 
31 | CC[C@H](C)[C@@H]1NC(=O)[C@H](Cc2cn(OC)c3ccccc23)NC(=O)[C@H](CCCCC(=O)OC)NC(=O)[C@H]2CCCCN2CC1=O | > 1 µg/mL | 0.074 µM | > 1 µg/mL | 
32 | CC[C@H](C)[C@@H]1NC(=O)[C@H](Cc2cn(OC)c3ccccc23)NC(=O)[C@H](CCCCNC(C)=O)NC(=O)[C@H]2CCCCN2CC1=O | 1 µg/mL (≈ 1.6 µM) | 2 µM | > 1 µg/mL | 
33 | CCC(N)CCCCC[C@@H]1NC(=O)[C@H]2CCCCN2CC(=O)[C@H]([C@@H](C)CC)NC(=O)[C@H](Cc2cn(OC)c3ccccc23)NC1=O (stereo partly drawn) | > 1 µg/mL | 0.144 µM | > 1 µg/mL | 
34 | CCC(=O)C(F)CCCC[C@@H]1NC(=O)[C@H]2CCCCN2CC(=O)[C@H]([C@@H](C)CC)NC(=O)[C@H](Cc2cn(OC)c3ccccc23)NC1=O (stereo partly drawn) | 0.7 µg/mL (≈ 1.07 µM) | 0.11 µM | 0.313 µg/mL (≈ 0.477 µM) | 
